Data: paper PMC10712727, “Safety, Tolerability, and Pharmacokinetics of Senaparib, a Novel PARP1/2 Inhibitor, in Chinese Patients With Advanced Solid Tumors: A Phase I Trial” (The Oncologist, 2023)

Tested on: patients with advanced solid tumors
Assay: Safety: treatment-emergent and senaparib-related adverse events graded per NCI CTCAE v4.03
Assay type: in vivo
Protocol: This phase I, open-label, multicenter, dose-escalation, and dose-expansion study was conducted at three national clinical institutions in China. […] At baseline, all patients enrolled in the dose-escalation phase had to have at least one evaluable lesion, and those in the dose-expansion period had to have at least one measurable lesion, according to Response Evaluation Criteria in Solid Tumors version 1.1 (RECIST v1.1).[16] Entry to the dose-expansion cohort required the presence of a BRCA mutation, with the exception of patients with ovarian carcinoma, fallopian tube carcinoma, and primary peritoneal carcinoma. Full study eligibility criteria are provided in Supplementary Table S1.
Dose escalation was conducted using a modified Fibonacci 3 + 3 method (Supplementary Fig. S1).[17] Patients were administered oral senaparib from a planned starting dose of 2 mg once daily (QD), with preliminary dose escalation to 120 mg via nine dose groups, in order of their entry into the study. At a given dose level, each patient received a single dose of senaparib followed by a 7-day washout period. They then entered a continuous dosing period to confirm the safety and PK profile, in which they received senaparib QD from day 1 to day 21 of each 3-week cycle. Progression to the next higher dose required approval from the Data Safety Monitoring Committee (DSMC) upon review of the safety and PK data of the previous dose. A 50-mg twice-daily (BID) dosing group was added (planned enrollment, n = 6 patients) based on a DSMC review of the safety, PK, and efficacy analysis of the completed QD dose groups in the phase I clinical trial of senaparib dose escalation in Australia (NCT03507543), which commenced prior to the start of this trial.
The dose-expansion period included 3 populations: dose groups in which at least one patient achieved complete response (CR) or partial response (PR) per RECIST v1.1[16] and 1 dose group higher (evaluated for safety), as well as the dose group at the maximum tolerated dose (MTD)/recommended phase II dose (RP2D). Each of these groups included those patients in the respective dose-escalation group plus a planned additional 10 patients (approximately 20 patients in the MTD/RP2D group) with BRCA^mut+ solid tumors (ovarian, breast, or prostate cancer were preferred, and ovarian cancer could be BRCA wild type). Patients received senaparib monotherapy orally QD or BID (50-mg dose only) over each 3-week cycle until disease progression or unacceptable toxicity.
DLTs were predefined toxicities (Supplementary Table S2) recorded over the 7 days following the single-dose administration of senaparib and during the first treatment cycle (day 1-day 21) for each dose group in the dose-escalation period only. The MTD was defined as the maximum dose at which ≤1/6 patients experienced a DLT. Senaparib PK parameters were derived from blood samples collected from patients after the single administration, and at regular intervals during the first cycle of the dose-escalation and dose-expansion periods. Plasma concentrations of senaparib were determined using high-performance liquid chromatography-tandem mass spectrometry. Tumor response was assessed every 6 weeks per RECIST v1.1,[16] recording objective response rate (ORR), disease control rate (DCR), duration of response (DOR), and progression-free survival (PFS) by dose level for all patients and for those harboring BRCA^mut+ tumors.

Structure (SMILES): O=C(c1cc(Cn2c(=O)[nH]c(=O)c3c(F)cccc32)ccc1F)N1CCN(c2ncccn2)CC1 [Senaparib]
- ALT increased TRAE, All (2 mg QD n = 1): 0 n (%)
- ALT increased TRAE, Gr≥3 (2 mg QD n = 1): 0 n (%)
- AST increased TRAE, All (2 mg QD n = 1): 0 n (%)
- AST increased TRAE, Gr≥3 (2 mg QD n = 1): 0 n (%)
- Anemia TRAE, All (2 mg QD n = 1): 0 n (%)
- Anemia TRAE, Gr≥3 (2 mg QD n = 1): 0 n (%)
- Any TEAE, All (2 mg QD n = 1): 1 (100) n (%)
- Any TEAE, Gr≥3 (2 mg QD n = 1): 1 (100) n (%)
- Any TEAE, events (2 mg QD n = 1): 9 n ev
- Any TEAE, patients (2 mg QD n = 1): 1 (100) n (%)
- Any TRAE, All (2 mg QD n = 1): 1 (100) n (%)
- Any TRAE, Gr≥3 (2 mg QD n = 1): 0 n (%)
- Appetite decreased TRAE, All (2 mg QD n = 1): 1 (100) n (%)
- Appetite decreased TRAE, Gr≥3 (2 mg QD n = 1): 0 n (%)
- Asthenia TRAE, All (2 mg QD n = 1): 0 n (%)
- Asthenia TRAE, Gr≥3 (2 mg QD n = 1): 0 n (%)
- Blood bilirubin increased TRAE, All (2 mg QD n = 1): 0 n (%)
- Blood bilirubin increased TRAE, Gr≥3 (2 mg QD n = 1): 0 n (%)
- Blood creatinine increased TRAE, All (2 mg QD n = 1): 0 n (%)
- Blood creatinine increased TRAE, Gr≥3 (2 mg QD n = 1): 0 n (%)
- Hypokalemia TRAE, All (2 mg QD n = 1): 1 (100) n (%)
- Hypokalemia TRAE, Gr≥3 (2 mg QD n = 1): 0 n (%)
- Nausea TRAE, All (2 mg QD n = 1): 0 n (%)
- Nausea TRAE, Gr≥3 (2 mg QD n = 1): 0 n (%)
- Neutrophil count decreased TRAE, All (2 mg QD n = 1): 0 n (%)
- Neutrophil count decreased TRAE, Gr≥3 (2 mg QD n = 1): 0 n (%)
- Platelet count decreased TRAE, All (2 mg QD n = 1): 0 n (%)
- Platelet count decreased TRAE, Gr≥3 (2 mg QD n = 1): 0 n (%)
- SAEs, events (2 mg QD n = 1): 1 n ev
- SAEs, patients (2 mg QD n = 1): 1 (100) n (%)
- TEAE Grade ≥3, events (2 mg QD n = 1): 1 n ev
- TEAE Grade ≥3, patients (2 mg QD n = 1): 1 (100) n (%)
- TEAEs leading to death, events (2 mg QD n = 1): 0 n ev
- TEAEs leading to death, patients (2 mg QD n = 1): 0 n (%)
- TEAEs leading to dose discontinuation, events (2 mg QD n = 1): 0 n ev
- TEAEs leading to dose discontinuation, patients (2 mg QD n = 1): 0 n (%)
- TEAEs leading to dose interruption, events (2 mg QD n = 1): 0 n ev
- TEAEs leading to dose interruption, patients (2 mg QD n = 1): 0 n (%)
- TEAEs leading to dose reduction, events (2 mg QD n = 1): 0 n ev
- TEAEs leading to dose reduction, patients (2 mg QD n = 1): 0 n (%)
- TRAEs Grade ≥3, events (2 mg QD n = 1): 0 n ev
- TRAEs Grade ≥3, patients (2 mg QD n = 1): 0 n (%)
- TRAEs, events (2 mg QD n = 1): 6 n ev
- TRAEs, patients (2 mg QD n = 1): 1 (100) n (%)
- Vomiting TRAE, All (2 mg QD n = 1): 0 n (%)
- Vomiting TRAE, Gr≥3 (2 mg QD n = 1): 0 n (%)
- WBC decreased TRAE, All (2 mg QD n = 1): 0 n (%)
- WBC decreased TRAE, Gr≥3 (2 mg QD n = 1): 0 n (%)
- ALT increased TRAE, All (5 mg QD n = 3): 0 n (%)
- ALT increased TRAE, Gr≥3 (5 mg QD n = 3): 0 n (%)
- AST increased TRAE, All (5 mg QD n = 3): 0 n (%)
- AST increased TRAE, Gr≥3 (5 mg QD n = 3): 0 n (%)
- Anemia TRAE, All (5 mg QD n = 3): 2 (66.7) n (%)
- Anemia TRAE, Gr≥3 (5 mg QD n = 3): 1 (33.3) n (%)
- Any TEAE, All (5 mg QD n = 3): 3 (100) n (%)
- Any TEAE, Gr≥3 (5 mg QD n = 3): 3 (100) n (%)
- Any TEAE, events (5 mg QD n = 3): 28 n ev
- Any TEAE, patients (5 mg QD n = 3): 3 (100) n (%)
- Any TRAE, All (5 mg QD n = 3): 3 (100) n (%)
- Any TRAE, Gr≥3 (5 mg QD n = 3): 1 (33.3) n (%)
- Appetite decreased TRAE, All (5 mg QD n = 3): 1 (33.3) n (%)
- Appetite decreased TRAE, Gr≥3 (5 mg QD n = 3): 0 n (%)
- Asthenia TRAE, All (5 mg QD n = 3): 1 (33.3) n (%)
- Asthenia TRAE, Gr≥3 (5 mg QD n = 3): 0 n (%)
- Blood bilirubin increased TRAE, All (5 mg QD n = 3): 1 (33.3) n (%)
- Blood bilirubin increased TRAE, Gr≥3 (5 mg QD n = 3): 0 n (%)
- Blood creatinine increased TRAE, All (5 mg QD n = 3): 0 n (%)
- Blood creatinine increased TRAE, Gr≥3 (5 mg QD n = 3): 0 n (%)
- Hypokalemia TRAE, All (5 mg QD n = 3): 0 n (%)
- Hypokalemia TRAE, Gr≥3 (5 mg QD n = 3): 0 n (%)
- Nausea TRAE, All (5 mg QD n = 3): 1 (33.3) n (%)
- Nausea TRAE, Gr≥3 (5 mg QD n = 3): 0 n (%)
- Neutrophil count decreased TRAE, All (5 mg QD n = 3): 1 (33.3) n (%)
- Neutrophil count decreased TRAE, Gr≥3 (5 mg QD n = 3): 0 n (%)
- Platelet count decreased TRAE, All (5 mg QD n = 3): 1 (33.3) n (%)
- Platelet count decreased TRAE, Gr≥3 (5 mg QD n = 3): 0 n (%)
- SAEs, events (5 mg QD n = 3): 0 n ev
- SAEs, patients (5 mg QD n = 3): 0 n (%)
- TEAE Grade ≥3, events (5 mg QD n = 3): 5 n ev
- TEAE Grade ≥3, patients (5 mg QD n = 3): 3 (100) n (%)
- TEAEs leading to death, events (5 mg QD n = 3): 0 n ev
- TEAEs leading to death, patients (5 mg QD n = 3): 0 n (%)
- TEAEs leading to dose discontinuation, events (5 mg QD n = 3): 0 n ev
- TEAEs leading to dose discontinuation, patients (5 mg QD n = 3): 0 n (%)
- TEAEs leading to dose interruption, events (5 mg QD n = 3): 0 n ev
- TEAEs leading to dose interruption, patients (5 mg QD n = 3): 0 n (%)
- TEAEs leading to dose reduction, events (5 mg QD n = 3): 0 n ev
- TEAEs leading to dose reduction, patients (5 mg QD n = 3): 0 n (%)
- TRAEs Grade ≥3, events (5 mg QD n = 3): 1 n ev
- TRAEs Grade ≥3, patients (5 mg QD n = 3): 1 (33.3) n (%)
- TRAEs, events (5 mg QD n = 3): 13 n ev
- TRAEs, patients (5 mg QD n = 3): 3 (100) n (%)
- Vomiting TRAE, All (5 mg QD n = 3): 0 n (%)
- Vomiting TRAE, Gr≥3 (5 mg QD n = 3): 0 n (%)
- WBC decreased TRAE, All (5 mg QD n = 3): 1 (33.3) n (%)
- WBC decreased TRAE, Gr≥3 (5 mg QD n = 3): 0 n (%)
- ALT increased TRAE, All (10 mg QD n = 3): 1 (33.3) n (%)
- ALT increased TRAE, Gr≥3 (10 mg QD n = 3): 0 n (%)
- AST increased TRAE, All (10 mg QD n = 3): 1 (33.3) n (%)
- AST increased TRAE, Gr≥3 (10 mg QD n = 3): 0 n (%)
- Anemia TRAE, All (10 mg QD n = 3): 1 (33.3) n (%)
- Anemia TRAE, Gr≥3 (10 mg QD n = 3): 0 n (%)
- Any TEAE, All (10 mg QD n = 3): 3 (100) n (%)
- Any TEAE, Gr≥3 (10 mg QD n = 3): 0 n (%)
- Any TEAE, events (10 mg QD n = 3): 10 n ev
- Any TEAE, patients (10 mg QD n = 3): 3 (100) n (%)
- Any TRAE, All (10 mg QD n = 3): 3 (100) n (%)
- Any TRAE, Gr≥3 (10 mg QD n = 3): 0 n (%)
- Appetite decreased TRAE, All (10 mg QD n = 3): 1 (33.3) n (%)
- Appetite decreased TRAE, Gr≥3 (10 mg QD n = 3): 0 n (%)
- Asthenia TRAE, All (10 mg QD n = 3): 0 n (%)
- Asthenia TRAE, Gr≥3 (10 mg QD n = 3): 0 n (%)
- Blood bilirubin increased TRAE, All (10 mg QD n = 3): 0 n (%)
- Blood bilirubin increased TRAE, Gr≥3 (10 mg QD n = 3): 0 n (%)
- Blood creatinine increased TRAE, All (10 mg QD n = 3): 0 n (%)
